Like-named read-outs stand apart in the source and are kept apart here.
Assays:
[1] = cited from earlier work
[2] = Maximum additive concentration (MAC) and degree of synergistic solubilisation in aqueous P407+P188 mixtures; assay type: physicochemical
Description: The maximum additive concentration (MAC) and degree of synergistic solubilisation was determined for a selection of water insoluble and sparingly soluble actives in aqueous P407+P188 mixtures.
For each active, the MAC was determined in the following aqueous poloxamer solutions:
As an aid to evaluating the level of synergistic solubilisation present within the system, the experimental data given in FIGS. 1-3 also includes the calculated MAC's of the systems that would be expected if the poloxamers comprising the mixture were solubilising independently and the overall MAC were simply the sum of the individual MAC's for the two components or admixture.

[3] = 3% w/v P407 + 7% w/v P188 in water
[4] = 7% w/v P407 + 3% w/v P188 in water

| Compound | incidence of pain on injection ([1]; formulated in a mixture of propylene glycol and water) | incidence of pain on injection ([1]; formulated in an emulsion form) | synergistic ratio, MACexperimental/MACadmixture [2, 3] | synergistic ratio, MACexperimental/MACadmixture [2, 4] |
| --- | --- | --- | --- | --- |
| CN1C(=O)CN=C(c2ccccc2)c2cc(Cl)ccc21 [diazepam] | 37% | 0% | – | – |
| CCN(CC)CC(=O)Nc1c(C)cccc1C [Lidocaine, 2-diethylamino-2′,6′-acetoxylidide] | – | – | 1.5 | 1.4 |
| CCCCCCCCCC(=O)OCCN1CCN(CCCN2c3ccccc3Sc3ccc(C(F)(F)F)cc32)CC1 [Fluphenazine decanoate, 2-{4-[3-(2-trifluoromethyl-phenothiazin-10-yl)propyl]piperazin-1-yl}ethyl decanoate] | – | – | 3.6 | 1.6 |
| Cc1ccc(C(C)C)cc1O [Carvacrol, 2-methyl-5-(1-methylethyl)phenol] | – | – | 2.1 | 1.8 |
| CCCCCCC(=O)OCCN1CCN(CCCN2c3ccccc3Sc3ccc(C(F)(F)F)cc32)CC1 [Fluphenazine enanthate, 2-{4-[3-(2-trifluoromethylphenothiazin-10-yl)propyl]piperazin-1-yl}ethyl heptanoate] | – | – | 2.5 | 1.8 |
